For 28 compounds, MIC results are on record in patent publication US9060515B2, “Heterocyclic urea compounds” (BIOTA EUROPE LTD, priority 2011, dated 2015).

Assay type in all cases: cell-based
In one test the test system is S. aureus (ATCC 29213). In words: Antibacterial susceptibility testing (MIC, broth microdilution or agar dilution), S. aureus. The following applies: Staphylococcus aureus, ATCC29213; read-out: S. aureus (ATCC 29213) minimal inhibitory concentration (MIC). The method, boiled down: (§1)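 MICs by CLSI (M7-A7) broth microdilution or agar dilution, against reference ATCC strains as listed.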

In the next test the test system is E. faecalis (ATCC 29212). In words: Antibacterial susceptibility testing (MIC, broth microdilution or agar dilution), E. faecalis. Conditions: Enterococcus faecalis, ATCC29212; read-out: E. faecalis (ATCC 29212) minimal inhibitory concentration (MIC). As to the method:
(§2) Compounds of the invention were tested for antimicrobial activity by susceptibility testing in liquid or on solid media. MICs for compounds against each strain were determined by the broth microdilution or agar dilution method according to the guidelines of the Clinical Laboratories and Standards Institute, formerly the National Committee for Clinical Laboratory Standards (Clinical Laboratories and Standards Institute. Methods for Dilution Antimicrobial Susceptibility Tests for Bacteria That Grow Aerobically; Approved Standard—Seventh Edition. Document M7-A7. CLSI, Wayne, Pa., 2006; Clinical Laboratories and Standards Institute. The Gram positive bacterial strains tested include S. aureus (Staphylococcus aureus (Isolate ID ATCC 29213)), E. faecalis (Enterococcus faecalis (Isolate ID ATCC 29212)) and S. pyogenes (Streptococcus pyogenes (Isolate ID ATCC 51339)). The Gram negative bacterial strains tested include H. influenzae (Haemophilus influenzae (Isolate ID ATCC 49247)).

The next test deals with S. pyogenes (ATCC 51339). The test can be described thus: Antibacterial susceptibility testing (MIC, broth microdilution or agar dilution), S. pyogenes. Conditions: Streptococcus pyogenes, ATCC51339; read-out: S. pyogenes (ATCC 51339) minimal inhibitory concentration (MIC). The method, boiled down: as §1
The subject of test [1] is H. influenzae (ATCC 49247). In words: Antibacterial susceptibility testing (MIC, broth microdilution or agar dilution), H. influenzae. The following applies: Haemophilus influenzae, ATCC49247; read-out: H. influenzae (ATCC 49247) minimal inhibitory concentration (MIC). The procedure:
as §2

≈ marks a conversion by molar mass, not a printed value.

`CCNC(=O)Nc1cc(Nc2ccccc2)c(C(=O)Nc2cccc(C)c2)cn1` [Compound 18, 6-(3-ethylureido)-4-(phenylamino)-N-m-tolylnicotinamide]: the MIC in the test on S. aureus (ATCC 29213) was no more than 1 µg/mL; with E. faecalis (ATCC 29212) it was no more than 1 µg/mL; with S. pyogenes (ATCC 51339) it was 2 µg/mL (≈ 5.14 µM).
Take `CCNC(=O)Nc1cc(Nc2ccccc2Cl)c(C(=O)Nc2ccc(CC(C)(C)C(=O)O)cc2)cn1` [Compound 183, 3-{4-[({4-[(2-chlorophenyl)amino]-6-[(ethylcarbamoyl)amino]pyridin-3-yl}carbonyl)amino]phenyl}-2,2-dimethylpropanoic acid]: the MIC in the test with S. aureus (ATCC 29213) is no more than 1 µg/mL; in test [1] it was 4 µg/mL (≈ 7.84 µM).
Turning to `CCNC(=O)Nc1cc(Nc2ccccc2)c(C(=O)Nc2cccnc2)cn1` [Compound 20, 6-(3-ethylureido)-4-(phenylamino)-N-(pyridin-3-yl)nicotinamide], the MIC with S. aureus (ATCC 29213), with E. faecalis (ATCC 29212) and in the test on S. pyogenes (ATCC 51339) was no more than 1 µg/mL throughout.
As to `CCNC(=O)Nc1cc(Nc2ccc(OC)c(F)c2)c(C(=O)Nc2ccc(CC(C)(C)C(=O)O)cc2)cn1` [Compound 190, 3-{4-[({6-[(ethylcarbamoyl)amino]-4-[(3-fluoro-4-methoxyphenyl)amino]pyridin-3-yl}carbonyl)amino]phenyl}-2,2-dimethylpropanoic acid], the values for the MIC (in the test on S. aureus (ATCC 29213); in test [1]) were no more than 1 µg/mL and 2 µg/mL (≈ 3.82 µM), respectively.
In the same order, the values of `CCNC(=O)Nc1cc(Nc2ccccc2)c(C(=O)Nc2ccc(CCC(=O)OC)nc2)cn1` [Compound 179, methyl 3-{5-[({6-[(ethylcarbamoyl)amino]-4-(phenylamino)pyridin-3-yl}carbonyl)amino]pyridin-2-yl}propanoate] are no more than 1 µg/mL and 8 µg/mL (≈ 17.3 µM).
On to `CCNC(=O)Nc1cc(Nc2ccccc2)c(C(=O)NCc2cccnc2)cn1` [Compound 28, 6-(3-ethylureido)-4-(phenylamino)-N-(pyridin-3-ylmethyl)nicotinamide], for which the MIC with E. faecalis (ATCC 29212) and in the test on S. pyogenes (ATCC 51339) was no more than 1 µg/mL throughout.
As for `CCNC(=O)Nc1cc(Nc2ccc(Cl)cc2)c(C(=O)Nc2ccc([C@@H]3C[C@H]3C(=O)O)cc2)cn1` [Compound 192, (1R,2R)-2-{4-[({4-[(4-chlorophenyl)amino]-6-[(ethylcarbamoyl)amino]pyridin-3-yl}carbonyl)amino]phenyl}cyclopropanecarboxylic acid], the MIC in the test with S. aureus (ATCC 29213) is no more than 1 µg/mL; in test [1], 2 µg/mL (≈ 4.05 µM).
`CCNC(=O)Nc1cc(Nc2cccc(Cl)c2)c(C(=O)Nc2ccc(CC(C)(C)C(=O)O)cc2)cn1` [Compound 177, 3-{4-[({4-[(3-chlorophenyl)amino]-6-[(ethylcarbamoyl)amino]pyridin-3-yl}carbonyl)amino]phenyl}-2,2-dimethylpropanoic acid]: the results for the MIC (with S. aureus (ATCC 29213); in test [1]) were no more than 1 µg/mL and 4 µg/mL (≈ 7.84 µM), respectively.
With `CCNC(=O)Nc1cc(Nc2ccccc2)c(C(=O)Nc2ccc(CCC(=O)O)nc2)cn1` [Compound 166, 3-{5-[({6-[(ethylcarbamoyl)amino]-4-(phenylamino)pyridin-3-yl}carbonyl)amino]pyridin-2-yl}propanoic acid], the MIC in the test on S. aureus (ATCC 29213) is 16 µg/mL (≈ 35.7 µM); in test [1], 8 µg/mL (≈ 17.8 µM).
For the compound `CCNC(=O)Nc1cc(Nc2ccccc2F)c(C(=O)Nc2ccc(CC(C)(C)C(=O)O)cc2)cn1` [Compound 182, 3-{4-[({6-[(ethylcarbamoyl)amino]-4-[(2-fluorophenyl)amino]pyridin-3-yl}carbonyl)amino]phenyl}-2,2-dimethylpropanoic acid], the figures for the MIC (with S. aureus (ATCC 29213); in test [1]) were no more than 1 µg/mL and 4 µg/mL (≈ 8.1 µM), respectively.
As to `CCNC(=O)Nc1cc(Nc2ccc(F)c(OC)c2)c(C(=O)Nc2ccc(CC(C)(C)C(=O)O)cc2)cn1` [Compound 184, 3-{4-[({6-[(ethylcarbamoyl)amino]-4-[(4-fluoro-3-methoxyphenyl)amino]pyridin-3-yl}carbonyl)amino]phenyl}-2,2-dimethylpropanoic acid], the MIC was no more than 1 µg/mL in the test on S. aureus (ATCC 29213) and 4 µg/mL (≈ 7.64 µM) in test [1].
Regarding `CCNC(=O)Nc1cc(Nc2ccccc2)c(C(=O)Nc2cccc(Cl)c2)cn1` [Compound 4], the MIC in the test on S. aureus (ATCC 29213) is no more than 1 µg/mL; in the test with E. faecalis (ATCC 29212) it was no more than 1 µg/mL; with S. pyogenes (ATCC 51339) it was 4 µg/mL (≈ 9.76 µM).
For the compound `CCNC(=O)Nc1cc(Nc2cccc(C)c2)c(C(=O)Nc2cccc(C)c2)cn1` [Compound 1, 6-(3-ethylureido)-N-m-tolyl-4-(m-tolylamino)nicotinamide], the MIC is 2 µg/mL (≈ 4.96 µM) with S. aureus (ATCC 29213), no more than 1 µg/mL in the test on E. faecalis (ATCC 29212) and 16 µg/mL (≈ 39.7 µM) in the test on S. pyogenes (ATCC 51339).
`CCNC(=O)Nc1cc(Nc2ccc(Cl)cc2)c(C(=O)Nc2ccc(CCC(=O)OC)cc2)cn1` [Compound 148, methyl 3-{4-[({4-[(4-chlorophenyl)amino]-6-[(ethylcarbamoyl)amino]pyridin-3-yl}carbonyl)amino]phenyl}propanoate]: the results for the MIC (in the test with S. aureus (ATCC 29213); in test [1]) were no more than 1 µg/mL and 4 µg/mL (≈ 8.07 µM), respectively.
In the same order, the values of `CCNC(=O)Nc1cc(Nc2ccccc2)c(C(=O)Nc2cnc(NCC3(C(=O)O)CCC3)nc2)cn1` [Compound 168, 1-[({5-[({6-[(ethylcarbamoyl)amino]-4-(phenylamino)pyridin-3-yl}carbonyl)amino]pyrimidin-2-yl}amino)methyl] cyclobutanecarboxylic acid] are 2 µg/mL (≈ 3.96 µM) and 8 µg/mL (≈ 15.9 µM).
Consider `CCNC(=O)Nc1cc(Nc2cccnc2)c(C(=O)Nc2ccccc2)cn1` [Compound 13, 6-(3-ethylureido)-N-phenyl-4-(pyridin-3-ylamino)nicotinamide], for which the MIC in the test with S. aureus (ATCC 29213), in the test on E. faecalis (ATCC 29212) and in the test on S. pyogenes (ATCC 51339) was no more than 1 µg/mL throughout.
With `CCNC(=O)Nc1cc(Nc2ccccc2)c(C(=O)Nc2ccc(/C=C/C(=O)O)cc2)cn1` [Compound 137, (2E)-3-{4-[({6-[(ethylcarbamoyl)amino]-4-(phenylamino)pyridin-3-yl}carbonyl)amino]phenyl}prop-2-enoic acid], the MIC in the test on S. aureus (ATCC 29213) is 2 µg/mL (≈ 4.49 µM); in test [1] it was 4 µg/mL (≈ 8.98 µM).
For `CCNC(=O)Nc1cc(Nc2ccc(Cl)cc2)c(C(=O)Nc2ccc(CCC(=O)O)cc2)cn1` [Compound 149, 3-{4-[({4-[(4-chlorophenyl)amino]-6-[(ethylcarbamoyl)amino]pyridin-3-yl}carbonyl)amino]phenyl}propanoic acid], the MIC is no more than 1 µg/mL with S. aureus (ATCC 29213) and 4 µg/mL (≈ 8.3 µM) in test [1].
On the same counts, the results for `CCNC(=O)Nc1cc(Nc2ccc(F)cc2)c(C(=O)Nc2ccc(CC(C)(C)C(=O)O)cc2)cn1` [Compound 175, 3-{4-[({6-[(ethylcarbamoyl)amino]-4-[(4-fluorophenyl)amino]pyridin-3-yl}carbonyl)amino]phenyl}-2,2-dimethylpropanoic acid] are no more than 1 µg/mL and 4 µg/mL (≈ 8.1 µM).
In the same order, the values of `CCNC(=O)Nc1cc(Nc2ccccc2)c(C(=O)Nc2ccc([C@@H]3C[C@H]3C(=O)O)cc2)cn1` [Compound 169] are 2 µg/mL (≈ 4.35 µM) and 2 µg/mL (≈ 4.35 µM).
Consider `CCNC(=O)Nc1cc(Nc2ccccc2)c(C(=O)Nc2ccc(NC(C)=O)nc2)cn1` [Compound 24, N-(6-acetamidopyridin-3-yl)-6-(3-ethylureido)-4-(phenylamino)nicotinamide], for which the MIC with S. aureus (ATCC 29213) is 2 µg/mL (≈ 4.61 µM); in the test with E. faecalis (ATCC 29212), no more than 1 µg/mL; in the test with S. pyogenes (ATCC 51339), no more than 1 µg/mL.
With `CCNC(=O)Nc1cc(Nc2ccc(C(F)(F)F)cc2)c(C(=O)Nc2ccc(CCC(=O)O)cc2)cn1` [Compound 176, 3-[4-[[6-(ethylcarbamoylamino)-4-[4-(trifluoromethyl)anilino]pyridine-3-carbonyl]amino]phenyl]propanoic acid], the MIC is no more than 1 µg/mL with S. aureus (ATCC 29213) and 4 µg/mL (≈ 7.76 µM) in test [1].
In the same order, the values of `CCNC(=O)Nc1cc(Nc2ccnc(OC)c2)c(C(=O)Nc2cccnc2)cn1` [Compound 163] are no more than 1 µg/mL and 8 µg/mL (≈ 19.6 µM).
On the same counts, the results for `CCNC(=O)Nc1cc(Nc2cccnc2)c(C(=O)Nc2ccc(CC(C)(C)C(=O)O)cc2)cn1` [Compound 171, 3-{4-[({6-[(ethylcarbamoyl)amino]-4-(pyridin-3-ylamino)pyridin-3-yl}carbonyl)amino]phenyl}-2,2-dimethylpropanoic acid] are 4 µg/mL (≈ 8.39 µM) and 4 µg/mL (≈ 8.39 µM).
Take `CCNC(=O)Nc1cc(Nc2ccccc2)c(C(=O)Nc2ccc([C@@H]3C[C@H]3C(=O)OCC)cc2)cn1` [Compound 180]: the MIC in test [1] came out at 2 µg/mL (≈ 4.1 µM).
Regarding `CCNC(=O)Nc1cc(Nc2cccnc2)c(C(=O)Nc2cccnc2)cn1` [Compound 19, 6-(3-ethylureido)-N-(pyridin-3-yl)-4-(pyridin-3-ylamino)nicotinamide], the MIC in the test on S. aureus (ATCC 29213) is 8 µg/mL (≈ 21.2 µM); with E. faecalis (ATCC 29212), no more than 1 µg/mL; in the test on S. pyogenes (ATCC 51339), no more than 1 µg/mL.
With `CCNC(=O)Nc1cc(Nc2ccccc2)c(C(=O)Nc2ccccc2)cn1` [Compound 17, 6-(3-ethylureido)-N-phenyl-4-(phenylamino)nicotinamide], the MIC with S. aureus (ATCC 29213) was no more than 1 µg/mL; in the test on E. faecalis (ATCC 29212) it was no more than 1 µg/mL; in the test with S. pyogenes (ATCC 51339), 2 µg/mL (≈ 5.33 µM).
`CCNC(=O)Nc1cc(Nc2ccccc2)c(C(=O)Nc2ccc(N3CCOCC3)nc2)cn1` [Compound 23, 6-(3-ethylureido)-N-(6-morpholinopyridin-3-yl)-4-(phenylamino)nicotinamide]: the MIC in the test with S. aureus (ATCC 29213) was 2 µg/mL (≈ 4.33 µM); with E. faecalis (ATCC 29212), no more than 1 µg/mL; in the test on S. pyogenes (ATCC 51339), no more than 1 µg/mL.
